Assays:
[1] = molecular target: FGFR1 kinase domain recombinant protein (Homo sapiens, UniProt P11362); assay: FGFR1 enzyme activity at molecular level (ELISA, Poly(Glu,Tyr) 4:1 substrate)
Description: (§1) The plate was placed at 37° C. for 12-16 hours. The liquid in the well was discarded, the plate was washed, and the panel was washed three times with 200 μL/well of T-PBS (PBS containing 0.1% Tween-20) for 5 minutes each time.
(§2) 50 μL of ATP solution diluted with reaction buffer (50 mM HEPES pH 7.4, 50 mM MgCl2, 0.5 mM MnCl2, 0.2 mM Na3VO4, 1 mM DTT) was added to each well to a final concentration of 5 μM. The compound was diluted to a suitable concentration in DMSO, 1 μL/well or containing the corresponding concentration of DMSO (negative control well), and the FGFR1, FGFR4 kinase domain recombinant protein diluted in 49 μL of reaction buffer was added to initiate the reaction. Two control wells without ATP were required for each experiment. The reaction was carried out for 1 hour at 37° C. on a shaker (100 rpm). The plate was washed three times with T-PBS. Primary antibody, PY99 dilution was added at 100 μL/well and shaken at 37° C. for 0.5 hour. The plate was washed three times with T-PBS. Secondary antibody, horseradish peroxidase-labeled goat anti-mouse IgG dilution was added at 100 μL/well, and shaken at 37° C. for 0.5 hour. […] (Ultrasound was required for the dissolution of OPD, and the chromogenic solution needed to be prepared when used). 2 M H2SO4 was added at 50 μL/well to quench the reaction and a tunable wavelength microplate reader SPECTRA MAX 190 was used at a wavelength of 490 nm.
(§3) The inhibition rate of the sample was obtained by the following formula:
(§4) The IC50 value was obtained by four-parameter regression using the software attached to the microplate reader.

[2] = molecular target: FGFR4 kinase domain recombinant protein (Homo sapiens, UniProt P22455); assay: FGFR4 enzyme activity at molecular level (ELISA, Poly(Glu,Tyr) 4:1 substrate)
Sequence of FGFR4 kinase domain recombinant protein (P22455 467-755 limits assumed): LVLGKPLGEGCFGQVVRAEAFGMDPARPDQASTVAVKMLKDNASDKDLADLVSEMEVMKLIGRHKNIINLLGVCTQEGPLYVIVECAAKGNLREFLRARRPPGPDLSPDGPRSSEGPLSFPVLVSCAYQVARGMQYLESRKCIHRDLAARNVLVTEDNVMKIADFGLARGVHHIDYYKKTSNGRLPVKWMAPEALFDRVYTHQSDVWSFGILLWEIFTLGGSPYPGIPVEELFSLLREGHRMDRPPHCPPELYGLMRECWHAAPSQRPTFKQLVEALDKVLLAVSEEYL
Description: as §1, §2, §3, §4

Sequence of FGFR1 kinase domain recombinant protein (P11362 478-767 limits assumed): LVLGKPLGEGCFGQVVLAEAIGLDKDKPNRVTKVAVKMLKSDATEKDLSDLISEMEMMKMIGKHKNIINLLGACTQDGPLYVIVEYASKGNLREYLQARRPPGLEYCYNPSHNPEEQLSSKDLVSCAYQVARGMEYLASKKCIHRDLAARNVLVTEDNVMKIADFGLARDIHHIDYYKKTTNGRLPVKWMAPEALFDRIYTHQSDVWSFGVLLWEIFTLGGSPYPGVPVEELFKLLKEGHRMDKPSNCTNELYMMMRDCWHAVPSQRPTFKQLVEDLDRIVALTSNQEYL

| SMILES | IC50 [1] [µM] | IC50 [2] [µM] |
| --- | --- | --- |
| C=CC(=O)N1CC(n2cc(-c3cc4cc(C)cc(OC)c4s3)c3c(N)ncnc32)CC1CO (centres unmarked) [NO. 70, 1-(4-(4-amino-5-(7-methoxy-5-methylbenzothiophene-2-yl)-7H-pyrrole[2,3-d]pyrimidine-7-yl)-2-(hydroxymethyl)pyrrolidine-1-yl)prop-2-en-1-one] | < 0.01 | – |
| C=C(CN(C)C)C(=O)N1CC(n2cc(-c3cc4cc(C)cc(OC)c4s3)c3c(N)ncnc32)C1 [NO. 53, 1-(3-(4-amino-5-(7-methoxy-5-methylbenzothiophene-2-yl)-7H-pyrrole[2,3-d]pyrimidine-7-yl)azetidine-1-yl)-2-((dimethylamino)methylene)prop-2-en-1-one] | < 0.01 | < 0.01 |
| C=CC(=O)N1CC[C@H](n2nc(-c3cc4cc(C)cc(OC)c4s3)c3c(N)ncnc32)C1 [NO. 56, (S) 1-(3-(4-amino-3-(7-methoxy-5-methylbenzothiophene-2-yl)-1H-pyrazole[3,4-d]pyrimidine-1-yl)pyrrolidine-1-yl)prop-2-en-1-one] | < 0.01 | < 0.01 |
| C=CC(=O)N1CCC(n2cc(-c3cc4cc(C)cc(OC)c4s3)c3c(N)nc(OCCN4CCOCC4)nc32)C1 (centres unmarked) [NO. 66, 1-(3-(4-amino-5-(7-methoxy-5-methylbenzothiophene-2-yl)-2-(2-morpholineethoxy)-7H-pyrrole [2,3-d]pyrimidine-7-yl)pyrrolidine-1-yl)prop-2-en-1-one] | > 0.1 | – |
| C=CC(=O)N1CC(n2cc(-c3cc4cc(C)cc(OC)c4o3)c3c(N)ncnc32)C1 [NO. 23, 1-(3-(4-amino-5-(7-methoxy-5-methylbenzofuran-2-yl)-7H-pyrrole[2,3-d]pyrimidine-7-yl)azetidine-1-yl)prop-2-en-1-one] | – | > 0.1 |
| COCCN(C)C/C=C/C(=O)N1CCC(n2cc(-c3cc4cc(C)cc(OC)c4s3)c3c(N)ncnc32)C1 (centres unmarked) [NO. 81, (E)-1-(3-(4-amino-5-(7-methoxy-5-methylbenzothiophene-2-yl)-7H-pyrrole[2,3-d]pyrimidine-7-yl)pyrrolidine-1-yl)-4-((2-methoxyethyl) (methyl)amino)but-2-en-1-one] | < 0.01 | 0.01 to 0.1 |
| C=CC(=O)N1CC[C@H](n2cc(-c3cc4cc(Cl)cc(OC)c4s3)c3c(N)ncnc32)C1 [NO. 59, (S)-1-(3-(4-amino-5-(5-chloro-7-methoxybenzothiophene-2-yl)-7H-pyrrole[2,3-d]pyrimidine-7-yl)pyrrolidine-1-yl)prop-2-en-1-one] | < 0.01 | – |
| C=CC(=O)N1CCC(n2cc(-c3ccc4c(N)n[nH]c4c3)c3c(N)ncnc32)C1 (centres unmarked) [NO. 80, 1-(3-(4-amino-5-(3-amino-1H-indazol-6-yl)-7H-pyrrole[2,3-d]pyrimidine-7-yl)pyrrolidine-1-yl)prop-2-en-1-one] | > 0.1 | > 0.1 |
| C=C(CN1CCN(C)CC1)C(=O)N1CC(n2cc(-c3cc4cc(C)cc(OC)c4s3)c3c(N)ncnc32)C1 [NO. 52, 1-(3-(4-amino-5-(7-methoxy-5-methylbenzothiophene-2-yl)-7H-pyrrole[2,3-d]pyrimidine-7-yl)azetidine-1-yl)-2-((4-methylpiperazin-1-yl)methylene)prop-2-en-1-one] | < 0.01 | < 0.01 |
| COc1cc(C)cc2cc(-c3cn(C4CCN(C(=O)OC(C)(C)C)C4)c4ncnc(N)c34)sc12 (centres unmarked) [NO. 10, tert-butyl 3-(4-amino-5-(7-methoxy-5-methylbenzothiophene-2-yl)-7H-pyrrole[2,3-d]pyrimidine-7-yl) pyrrolidine-1-formate] | 0.01 to 0.1 | > 0.1 |
| C=CC(=O)N1CCC(n2cc(-c3ccncc3)c3c(N)ncnc32)C1 (centres unmarked) [NO. 82, 1-(3-(4-amino-5-(pyridine-4-yl)-7H-pyrrole[2,3-d]pyrimidine-7-yl)pyrrolidine-1-yl)prop-2-en-1-one] | > 0.1 | > 0.1 |
| COc1cc(C)cc2cc(-c3cn(C4CN(C(=O)/C=C/CN(C)C)C4)c4ncnc(N)c34)sc12 [NO. 19, (E)-1-(3-(4-amino-5-(7-methoxy-5-methylbenzothiophene-2-yl)-7H-pyrrole[2,3-d]pyrimidine-7-yl)azetidin-1-yl)-4-(dimethylamino)but-2-en-1-one] | < 0.01 | 0.01 to 0.1 |
| COc1cc(C)cc2cc(-c3cn(C4CCN(C(=O)/C=C/CN5CCC(F)C5)C4)c4ncnc(N)c34)sc12 (centres unmarked) [NO. 69, (E)-1-(3-(4-amino-5-(7-methoxy-5-methylbenzothiophene-2-yl)-7H-pyrrole[2,3-d]pyrimidine-7-yl)pyrrolidine-1-yl)-4-(3-fluoropyrrolidin-1-yl)but-2-en-1-one] | < 0.01 | 0.01 to 0.1 |
| C=CC(=O)N1CCC(n2cc(-c3cc4cc(C(=O)O)cc(OC)c4s3)c3c(N)ncnc32)C1 (centres unmarked) [NO. 85, 2-(7-(1-acryloylpyrrolidine-3-yl)-4-amino-7H-pyrrole[2,3-d]pyrimidine-5-yl)-7-methoxybenzothiophene-5-formic acid] | > 0.1 | > 0.1 |
| C=C(CN(CC)CC)C(=O)N1CC[C@H](n2cc(-c3cc4cc(C)cc(OC)c4s3)c3c(N)ncnc32)C1 [NO. 46, (S) 1-(3-(4-amino-5-(7-methoxy-5-methylbenzothiophene-2-yl)-7H-pyrrole[2,3-d]pyrimidine-7-yl)pyrrolidine-1-yl)-2-((diethylamino)methylene)prop-2-en-1-one] | 0.01 to 0.1 | < 0.01 |
| C=CC(=O)N1CCC(n2c(Cl)c(-c3cc4cc(C)cc(OC)c4s3)c3c(N)ncnc32)C1 (centres unmarked) [NO. 71] | < 0.01 | – |
| COc1cc(C)cc2cc(-c3cn(C4CCN(C(=O)/C=C/CN5CCC(O)CC5)C4)c4ncnc(N)c34)sc12 (centres unmarked) [NO. 77, (E)-1-(3-(4-amino-5-(7-methoxy-5-methylbenzothiophene-2-yl)-7H-pyrrole[2,3-d]pyrimidine-7-yl)pyrrolidine-1-yl)-4-(4-hydroxypiperidine-1-yl)but-2-en-1-one] | < 0.01 | 0.01 to 0.1 |
| COc1cc(C)cc2cc(-c3cn(C4CCN(C(=O)/C=C/CN(C)C(C)C)C4)c4ncnc(N)c34)sc12 (centres unmarked) [NO. 6, (E)1-(3-(4-amino-5-(7-methoxy-5-methylbenzothiophene-2-yl)-7H-pyrrole[2,3-d]pyrimidine-7-yl)pyrrolidine-1-yl)-4-(isopropyl(methyl)amino)but-2-en-1-one] | < 0.01 | 0.01 to 0.1 |
| C=C(CN1CCCC1)C(=O)N1CC(n2cc(-c3cc4cc(C)cc(OC)c4s3)c3c(N)ncnc32)C1 [NO. 44, 1-(3-(4-amino-5-(7-methoxy-5-methylbenzothiophene-2-yl)-7H-pyrrole[2,3-d]pyrimidine-7-yl)azetidine-1-yl)-2-(pyrrolidine-1-methylene)prop-2-en-1-one] | < 0.01 | < 0.01 |
| C=C(CN1CCCCC1)C(=O)N1CC[C@H](n2cc(-c3cc4cc(C)cc(OC)c4s3)c3c(N)ncnc32)C1 [NO. 48, (S) 1-(3-(4-amino-5-(7-methoxy-5-methylbenzothiophene-2-yl)-7H-pyrrole[2,3-d]pyrimidine-7-yl)pyrrolidine-1-yl)-2-(piperidine-1-methylene)prop-2-en-1-one] | 0.01 to 0.1 | < 0.01 |
| C=C(CN1CCOCC1)C(=O)N1CC[C@H](n2nc(-c3cc4cc(C)cc(OC)c4s3)c3c(N)ncnc32)C1 [NO. 54, (S) 1-(3-(4-amino-3-(7-methoxy-5-methylbenzothiophene-2-yl)-1H-pyrazole[3,4-d]pyrimidine-1-yl)pyrrolidine-1-yl)-2-(morpholinemethylene)prop-2-en-1-one] | < 0.01 | 0.01 to 0.1 |
| C=CC(=O)N1C[C@@H](n2nc(-c3cc4cc(C)cc(OC)c4s3)c3c(N)ncnc32)C[C@H]1C(=O)N(C)CCN(C)C [NO. 75] | < 0.01 | – |
| C=CC(=O)N1CCC(n2cc(-c3cc4cc(C(F)(F)F)cc(OC)c4s3)c3c(N)ncnc32)C1 (centres unmarked) [NO. 58, 1-(3-(4-amino-5-(7-methoxy-5-(trifluoromethyl)benzothiophene-2-yl)-7H-pyrrole[2,3-d]pyrimidine-7-yl)pyrrolidine-1-yl)prop-2-en-1-one] | < 0.01 | < 0.01 |
| C=CC(=O)N1CC[C@H](n2cc(-c3cc4cc(F)cc(OC)c4s3)c3c(N)ncnc32)C1 [NO. 60, (S)-1-(3-(4-amino-5-(5-fluoro-7-methoxybenzothiophene-2-yl)-7H-pyrrole[2,3-d]pyrimidine-7-yl)pyrrolidine-1-yl)prop-2-en-1-one] | < 0.01 | – |
| COc1cc(C)cc2cc(-c3cn(CCN4CCOCC4)c4ncnc(N)c34)sc12 [NO. 76, 5-(7-methoxy-5-methylbenzothiophene-2-yl)-7-(2-morpholineethyl)-7H-pyrrole[2,3-d]p yrimidine-4-amine] | 0.01 to 0.1 | > 0.1 |
| COc1cc(C)cc2cc(-c3nn(C4CCN(C(=O)CCl)C4)c4ncnc(N)c34)sc12 (centres unmarked) [NO. 84, 1-(3-(4-amino-3-(7-methoxy-5-methylbenzothiophene-2-yl)-1H-pyrazole[3,4-d]pyrimidine-1-yl)pyrrolidine-1-yl)-2-chloroethane-1-one] | < 0.01 | > 0.1 |
| C=C(CN1CCOCC1)C(=O)N1CC[C@H](n2cc(-c3cc4cc(C)cc(OC)c4s3)c3c(N)ncnc32)C1 [NO. 45, (S) 1-(3-(4-amino-5-(7-methoxy-5-methylbenzothiophane-2-yl)-7H-pyrrole[2,3-d]pyrimidine-7-yl)pyrrolidine-1-yl)-2-(morpholinemethylene)prop-2-en-1-one] | 0.01 to 0.1 | < 0.01 |
| C=CC(=O)N1CCC(n2cc(-c3ccoc3)c3c(N)ncnc32)C1 (centres unmarked) [NO. 83, 1-(3-(4-amino-5-(furan-3-yl)-7H-pyrrole [2,3-d]pyrimidine-7-yl)pyrrolidine-1-yl)prop-2-en-1-one] | > 0.1 | > 0.1 |
| C=CC(=O)N1CC[C@H](n2cc(-c3cc4cc(Br)cc(OC)c4s3)c3c(N)ncnc32)C1 [NO. 62, (S)-1-(3-(4-amino-5-(5-bromo-7-methoxybenzothiophene-2-yl)-7H-pyrrole[2,3-d]pyrimidine-7-yl)pyrrolidine-1-yl)prop-2-en-1-one] | < 0.01 | – |
